Assay results: publication PMC11561622, “Evaluating Antimalarial Proteasome Inhibitors for Efficacy in Babesia Blood Stage Cultures” (ACS Omega, 2024)
Entries after “also recorded” stand apart in the source; their conditions may differ.

Experiments:
[1] = system: B. divergens proteasome β5 subunit; format: biochemical, Babesia divergens
Protocol: (§1) B. divergens and B. microti protein lysates were prepared from infected red blood cells. Briefly, red blood cells were lysed with 0.15% saponin prepared in 1× Phosphate-Buffered Saline (PBS), pH 7.5, to release intact parasites. Parasites were washed with 1× PBS, pH 7.5 (PBS), by centrifugation and the pellets were stored at −80 °C in PBS plus 20% glycerol. To prepare protein lysates for enzymatic assays, parasites were thawed and transferred to 50 mM HEPES (pH 7.5), 10 μM E64, 100 μM AESBF, 1 μM Pepstatin A, and 1 mM DTT (all Sigma-Aldrich). Cells were ruptured by ultrasonication with an amplitude of 0.5 for 3 cycles of 15 s on ice. To prepare protein lysates for activity-based probing and proteasome purification, parasites were thawed and transferred to 20 mM Tris-HCl, pH 7.5, 1 mM DTT, 10 μM E64, and 5% glycerol. The lysate was sonicated on ice for 3 times and clarified by centrifugation at 17,000g for 10 min at 4 °C.
To further improve the detection of the β5 subunit activity with the Suc-LLVY-amc substrate of the Babesia proteasome as previously published,[27] we aimed to further optimize assay conditions. However, to reduce the number of experimental animals in the study, assay conditions were optimized using protein lysates of B. divergens, which can be grown in vitro, instead of B. microti lysates, which need to be maintained in mice. […] Assay conditions were optimized in 50 μL volumes in round-bottom 96-well plates. Two assay buffers were evaluated. Buffer A, as described previously,[27] consists of 20 mM HEPES, pH 8, 1 mM ATP, and 1 μM E64, while Buffer B consists of 50 mM HEPES, pH 7.5, 5 mM ATP, 10 μM E64, 100 μM AESBF, 1 μM Pepstatin A, and 1 mM DTT. Buffers A and B were tested with either 0.02% SDS or 6.67 ng of PA28 as activators of the proteasome activity. […] The release of the AMC fluorophore was monitored at 37 °C in a Synergy HTX multimode reader (BioTek) with excitation and emission wavelengths set to 340 and 460 nm, respectively.
Proteasome activity in B. microti and B. divergens lysates was screened in the presence of carmaphycin B (CPB) and numerous analogs that were previously designed to target the P. falciparum 20S proteasome.[30] A pool of lysates was made for each species to ensure that equal amounts of the lysates were used in each inhibition reaction. Inhibitors were transferred to black 384-well plates with the ATS acoustic transfer system (ATS-100, Biosera). Lysates were incubated with inhibitors for 30 min at room temperature and activity was assayed in 30 μL reactions. Each reaction mixture contained 5 μL of Babesia lysate, 10 nL of the inhibitor (final concentration of 133.33 nM), and 25 μL of assay buffer with 25 μM substrate succinyl-Leu-Leu-Val-Tyr-7-amido-4-methylcoumarin (Suc-LLVY-amc). The release of the AMC fluorophore was monitored at 37 °C in a Synergy HTX multimode reader (BioTek Instruments, Winooski, VT) with excitation and emission wavelengths set to 340 and 460 nm, respectively. Activity was quantified as RFU per second and normalized to the DMSO control reactions.

[2] = system: B. microti proteasome β5 subunit; assay: β5 proteasome activity in B. microti lysates (Suc-LLVY-amc); format: biochemical, Babesia microti; details: 133.33 nM inhibitor, relative to DMSO
Protocol: as §1
To further improve the detection of the β5 subunit activity with the Suc-LLVY-amc substrate of the Babesia proteasome as previously published,[27] we aimed to further optimize assay conditions. However, to reduce the number of experimental animals in the study, assay conditions were optimized using protein lysates of B. divergens, which can be grown in vitro, instead of B. microti lysates, which need to be maintained in mice. […] Two assay buffers were evaluated. […] The release of the AMC fluorophore was monitored at 37 °C in a Synergy HTX multimode reader (BioTek) with excitation and emission wavelengths set to 340 and 460 nm, respectively.
Proteasome activity in B. microti and B. divergens lysates was screened in the presence of carmaphycin B (CPB) and numerous analogs that were previously designed to target the P. falciparum 20S proteasome.[30] […] The release of the AMC fluorophore was monitored at 37 °C in a Synergy HTX multimode reader (BioTek Instruments, Winooski, VT) with excitation and emission wavelengths set to 340 and 460 nm, respectively. Activity was quantified as RFU per second and normalized to the DMSO control reactions.

[3] = system: catalytic subunits of Bd20S; assay: Activity-based probe labeling (Me4BodipyFL-Ahx3Leu3VS) of Bd20S catalytic subunits; format: binding, Babesia divergens; details: lysates from CFZ- and CPB-treated cells, vs vehicle
[4] = system: HepG2 cells; details: previously reported; cited from earlier work

SMILES: CCCCCC(=O)N[C@H](C(=O)N[C@@H](CCS(C)(=O)=O)C(=O)N[C@@H](CC(C)C)C(=O)[C@@]1(C)CO1)C(C)C [carmaphycin B]
- inhibition of β5 activity in B. divergens lysate (in words) [1]: to the same extent as CFZ; also recorded: completely inactivate
- inhibition of β5 activity in B. microti lysate (in words) [2]: to the same extent as CFZ
- inhibition of β5 activity in B. microti lysate (in words) ([2]; listed as CPB): inhibited
- labeling of catalytic subunits by activity-based probe [3]: significantly reduced
- EC50 [4]: 12.6 ± 1.4 nM
